Assay results reported in USRE42748E1, “Oral DTPA for radionuclide chelation” (priority 2006, dated 2011).
Where “and” joins values, the source holds several entries; their conditions need not be identical. Equal values may be shown once.

Legend:
[1] = Bioavailability study after liquid dose of radiolabeled DTPA (14C) in male Sprague-Dawley rats (SRI Study B230-06); type: in vivo
Procedure: The objective of this study was to determine the oral bioavailability of Ca-DTPA using radioactive ^14C-DTPA tracer for detection in male Sprague Dawley rats after oral administration in several different formulations. After oral gavage of Ca-DTPA or DTPA (free acid) in sterile water, the oral bioavailability of DTPA is estimated to be about 7% in these two treatment groups. […] In Group 7, which also was administered DTPA in 20% Labrasol (+Quinidine pretreatment), the mean bioavailability was 10%, but this group had greater interindividual variability than seen in the other treatment groups.

iron-loaded dogs = test: Excretion of iron after repeat dose administration of DTPA in iron-loaded dogs; type: in vivo, beagle dogs; set-up: Excretion of Fe in urine / Excretion of Fe in urine, Total: unit not given here; conditions: for Excretion of Fe in urine, Total: sum 4 hr to 120 hr; for excretion of Fe after oral DTPA as % of the amount excreted by intravenously treated animals: oral vs IV
Procedure: The objective of this study was to evaluate the efficacy of an oral formulation of DTPA to enhance the excretion of iron in urine from iron-loaded dogs. Iron-loaded dogs were used in the study as a surrogate model for contamination by transuranic elements.
Two treatment groups, consisting of one male and one female dog, were compared. Ca-DTPA in sterile saline was administered by the intravenous route, 10 mg/kg, on Day 1, followed by 4 days of treatment with Zn-DTPA (10 mg/kg daily). The oral treatment group was also administered 10 mg/kg in 20% Labrasol® in capsules, with Ca-DTPA on Day 1 and Zn-DTPA on Days 2-5. Blood was collected from each dog at the following time points: predose and 1, 4, 8, and 24 hr after dose administration on Day 1, and at 24 hr postdose on Days 2-5. Dogs were maintained in metabolism cages for the study, and urine was collected at 4, 8, and 24 hr after the Day 1 dose, and every 24 hr after the Day 2-5 doses. Collected samples were analyzed for iron, calcium, and zinc by Perkin-Elmer ICP (Inductively Coupled Plasma) unit.

[2] = Oral bioavailability of two additional Ca-DTPA formulations in beagle dogs (SRI Study B221B-06)
Procedure: Oral bioavailability is assessed using the Beagle dog, or equivalent model, wherein levels of plasma Ca/Zn-DTPA from an orally administered composition are compared to levels obtained after i.v. administration using the calculation: BA=AUCPO×Doseiv/AUCiv×DosePO; where BA=bioavailability and AUC=area under the plasma concentration-time curve.
Two additional oral formulations of Ca-DTPA were studied in male and female beagle dogs to determine the effect of modifications in the formulation on oral bioavailability (SRI Study B221B-06). The dose administered was 10 mg/kg plus ˜100 μCi/kg. One male and one female dog received the drug in a bead formulation that consisted of 42.22% DTPA, 25.33% Labrasol®, 8.44% CAB-O-SIL EH5, 24.0% HPMC K110M, and 17.17% water; the other male and female dog were administered DTPA in a liquid formulation that consisted of 20% Labrasol®. In both dose groups, the formulated drug was added to size “0” capsules, then sealed and stored until administration.

[3] = tested on: harvested rat small intestinal segments: Duodenum; test: Ussing chamber mucosal to serosal transport across rat duodenum; type: in vitro ADME; conditions: 5 mg/ml of DTPA in HEPES Buffer
Procedure: (§1) The primary objective of these in vitro studies was to determine a formulation containing permeation enhancers/other additives that achieved maximum transport of DTPA from mucosal to serosal side of the intestine. The mucosal to serosal absorption of DTPA (Zinc/Calcium) was measured in vitro across harvested rat intestinal segments and colon, in an EasyMount Ussing System (Physiological Instruments Inc., CA, Item #EM-CSYS-8). The Ussing chamber consists of two diffusion chambers, a heating block for temperature control, needle valves for gas flow adjustment and gas lift stirring, and Ag/AgCl voltage and current electrodes for measuring transepithelial voltage and for passing current. Representative sections of the harvested rat small intestinal segments (jejunum, duodenum, and ileum) and the rat colon were mounted on sliders placed between the chambers, and DTPA (Zinc/Calcium) transport across the sections was monitored. Aliquots of sample solution were removed from the ‘serosal’ side at 30 min intervals and analyzed by high performance liquid chromatography (HPLC). The change in mucosal to serosal transport of DTPA (Zinc/Calcium) in the presence of different permeation enhancers was determined.
(§2) Zn-DTPA and Ca-DTPA was dissolved in HEPES buffer (VWR, Brisbane, Calif.), with or without additives, at the predetermined drug concentrations. […]

[4] = tested on: harvested rat small intestinal segments: Jejunum; test: Ussing chamber mucosal to serosal transport across rat jejunum; type: in vitro ADME
Procedure: as §1
Zn-DTPA and Ca-DTPA was dissolved in HEPES buffer (VWR, Brisbane, Calif.), with or without additives, at the predetermined drug concentrations. HEPES buffer was used as the base mucosal and serosal fluid. Before initiating the experiment, 5 ml of HEPES buffer was added to each of the two chambers (mucosal and serosal) and was allowed to equilibrate for 20 min. Next, the mucosal buffer was replaced by the appropriate formulation to be tested and the experiment was initiated. Aliquots (0.5 ml) were collected from the serosal side and were replaced with an equivalent amount of fresh HEPES buffer (maintained at physiological temperature). The aliquotted samples from the serosal side were analyzed by HPLC.
Owing to the expected variation in the in vitro conditions and harvested rat intestinal segments, five replicates were used per experimental condition. In order to compare data obtained from the different experiments, the apparent permeability coefficients (Papp) were calculated according to:
[formula] Where, dQ/dt is the linear appearance rate of mass in receiver compartment, C0 is the initial solute concentration in donor compartment, and A is the surface area. The higher the Papp value, the better the permeation property. The similarity of the Papp values indicates similar behavior for the two DTPA compounds.
We then evaluated transport of Zn-DTPA and Ca-DTPA through jejunum segments with and without Labrasol.
We then tested the transport of 100 mg/ml DTPA in HEPES buffer with and without added enhancers across jejunum segments; results are in Table 3.

[5] = tested on: harvested rat small intestinal segments: Ileum; test: Ussing chamber mucosal to serosal transport across rat ileum; type: in vitro ADME; conditions: 5 mg/ml of DTPA in HEPES Buffer
Procedure: as §1, §2

rat colon = test: Ussing chamber mucosal to serosal transport across rat colon; type: in vitro ADME; conditions: 5 mg/ml of DTPA in HEPES Buffer
Procedure: as §1, §2

## O=C(O)CN(CCN(CC(=O)O)CC(=O)O)CCN(CC(=O)O)CC(=O)O [DTPA]
[1]; Group 4 Oral, 20% Labrasol
  % Bioavailability Mean ± SD: ~12%
[1]; Group 7 Oral, 0.15 mM Quinidine pretreatment then 20% Labrasol
  % Bioavailability Mean ± SD: 10%
[1]; Group 7 Oral, 0.15 mM Quinidine pretreatment then 20% Labrasol, individual rats
  % Bioavailability: 19%
iron-loaded dogs; Dog 1M, IV 10 mg/kg daily, Time 48 hr
  Excretion of Fe in urine: 0.6044
iron-loaded dogs; Dog 1M, IV 10 mg/kg daily, Time 72 hr
  Excretion of Fe in urine: 0.1732
iron-loaded dogs; Dog 1M, IV 10 mg/kg daily, Time 96 hr
  Excretion of Fe in urine: 0.1762
iron-loaded dogs; Dog 1M, IV 10 mg/kg daily, Time 120 hr
  Excretion of Fe in urine: 0.2324
iron-loaded dogs; Dog 1M, IV 10 mg/kg daily
  Excretion of Fe in urine, Total: 1.444
iron-loaded dogs; Dog 1M, IV 10 mg/kg, Time 4 hr
  Excretion of Fe in urine: 0.0970
iron-loaded dogs; Dog 1M, IV 10 mg/kg, Time 8 hr
  Excretion of Fe in urine: 0.0471
iron-loaded dogs; Dog 1M, IV 10 mg/kg, Time 24 hr
  Excretion of Fe in urine: 0.1136
iron-loaded dogs; Dog 1M, IV in saline 10 mg/kg (Ca-DTPA Day 1, Zn-DTPA Days 2-5), Time 0 hr (predose)
  Excretion of Fe in urine: 0.1297
iron-loaded dogs; Dog 2F, IV 10 mg/kg daily, Time 48 hr
  Excretion of Fe in urine: 0.2686
iron-loaded dogs; Dog 2F, IV 10 mg/kg daily, Time 72 hr
  Excretion of Fe in urine: 0.1623
iron-loaded dogs; Dog 2F, IV 10 mg/kg daily, Time 96 hr
  Excretion of Fe in urine: 0.2884
iron-loaded dogs; Dog 2F, IV 10 mg/kg daily, Time 120 hr
  Excretion of Fe in urine: 0.0166
iron-loaded dogs; Dog 2F, IV 10 mg/kg daily
  Excretion of Fe in urine, Total: 0.925
iron-loaded dogs; Dog 2F, IV 10 mg/kg, Time 4 hr
  Excretion of Fe in urine: 0.0975
iron-loaded dogs; Dog 2F, IV 10 mg/kg, Time 8 hr
  Excretion of Fe in urine: 0.0124
iron-loaded dogs; Dog 2F, IV 10 mg/kg, Time 24 hr
  Excretion of Fe in urine: 0.0792
iron-loaded dogs; Dog 2F, IV in saline 10 mg/kg (Ca-DTPA Day 1, Zn-DTPA Days 2-5), Time 0 hr (predose)
  Excretion of Fe in urine: 0.1158
iron-loaded dogs; Dog 3M, Oral 10 mg/kg in 20% Labrasol capsules (Ca-DTPA Day 1, Zn-DTPA Days 2-5), Time 0 hr (predose)
  Excretion of Fe in urine: 0.0947
iron-loaded dogs; Dog 3M, Oral 10 mg/kg in 20% Labrasol capsules, Time 4 hr
  Excretion of Fe in urine: 0.0654
iron-loaded dogs; Dog 3M, Oral 10 mg/kg in 20% Labrasol capsules, Time 8 hr
  Excretion of Fe in urine: 0.0153
iron-loaded dogs; Dog 3M, Oral 10 mg/kg in 20% Labrasol capsules, Time 24 hr
  Excretion of Fe in urine: 0.1000
iron-loaded dogs; Dog 3M, Oral 10 mg/kg in 20% Labrasol capsules, Time 48 hr
  Excretion of Fe in urine: 0.1232
iron-loaded dogs; Dog 3M, Oral 10 mg/kg in 20% Labrasol capsules, Time 72 hr
  Excretion of Fe in urine: 0.0506
iron-loaded dogs; Dog 3M, Oral 10 mg/kg in 20% Labrasol capsules, Time 96 hr
  Excretion of Fe in urine: 0.1869
iron-loaded dogs; Dog 3M, Oral 10 mg/kg in 20% Labrasol capsules, Time 120 hr
  Excretion of Fe in urine: 0.0506
iron-loaded dogs; Dog 3M, Oral 10 mg/kg in 20% Labrasol capsules
  Excretion of Fe in urine, Total: 0.591
iron-loaded dogs; Dog 4F, Oral 10 mg/kg in 20% Labrasol capsules (Ca-DTPA Day 1, Zn-DTPA Days 2-5), Time 24 hr
  Excretion of Fe in urine: 0.0314
iron-loaded dogs; Dog 4F, Oral 10 mg/kg in 20% Labrasol capsules, Time 48 hr
  Excretion of Fe in urine: 0.1162
iron-loaded dogs; Dog 4F, Oral 10 mg/kg in 20% Labrasol capsules, Time 72 hr
  Excretion of Fe in urine: 0.0210
iron-loaded dogs; Dog 4F, Oral 10 mg/kg in 20% Labrasol capsules, Time 96 hr
  Excretion of Fe in urine: 0.0406
iron-loaded dogs; Dog 4F, Oral 10 mg/kg in 20% Labrasol capsules, Time 120 hr
  Excretion of Fe in urine: 0.1089
iron-loaded dogs; Dog 4F, Oral 10 mg/kg in 20% Labrasol capsules
  Excretion of Fe in urine, Total: 0.318
iron-loaded dogs; female Dog 4 (oral group)
  time of highest excretion of Fe in the urine: 48 h
iron-loaded dogs; female dogs
  excretion of Fe after oral DTPA as % of the amount excreted by intravenously treated animals: 34%
iron-loaded dogs; male Dog 1 (intravenous group)
  time of highest excretion of Fe in the urine: 48 h
iron-loaded dogs; male dogs
  excretion of Fe after oral DTPA as % of the amount excreted by intravenously treated animals: 40%
iron-loaded dogs; the other two dogs (Dog 2 IV, Dog 3 oral)
  time of highest excretion of Fe in the urine: 96 h
[2]; by 24 hr, both treatment groups (bead and liquid capsule)
  dose excreted in the feces: 73-74%
[2]; by 264 hr after dose administration, oral Labrasol formulations
  dose recovered in the excreta: 95-96%

## C=C[C@H]1C[N@@]2CC[C@H]1C[C@@H]2[C@@H](O)c1ccnc2ccc(OC)cc12 [quinidine]
[1]; 0.15 mM quinidine 20 min before DTPA in 20% Labrasol, inferred from rat #19
  inhibition of efflux transport of DTPA: active in inhibiting efflux transport of DTPA

## O=C([O-])CN(CCN(CC(=O)[O-])CC(=O)[O-])CCN(CC(=O)[O-])CC(=O)[O-].[Na+].[Na+].[Na+].[Zn+2] [Zn-DTPA, zinc diethylenetriaminepentaacetate]
[3]
  Papp: 16.5 nm/s
[4]; Jejunum, 5 mg/ml of drug in HEPES Buffer
  Papp: 45.4 nm/s and 42.8 nm/s
[4]; jejunum, 5 mg/ml of drug in HEPES Buffer containing 40% Labrasol
  Papp: 190.8 nm/s
[4]; jejunum, 100 mg/ml DTPA in HEPES buffer, 5% TPGS + 5% Labrasol
  Papp: 63.4 nm/s
[4]; jejunum, 100 mg/ml DTPA in HEPES buffer, 5% Tween 80 + 5% Labrasol
  Papp: 132.7 nm/s
[4]; jejunum, 100 mg/ml DTPA in HEPES buffer, 20% Bile Salt
  Papp: 196.5 nm/s
[4]; jejunum, 100 mg/ml of drug in HEPES Buffer containing 10% Labrasol
  Papp: 42.1 nm/s
[4]; jejunum, 100 mg/ml of drug in HEPES Buffer containing 20% Labrasol
  Papp: 35.3 nm/s
[4]; jejunum, 100 mg/ml of drug in HEPES Buffer containing 40% Labrasol
  Papp: 68.1 nm/s
[4]; jejunum, 100 mg/ml of drug in HEPES Buffer only
  Papp: 58.6 nm/s
[5]
  Papp: 20.7 nm/s
Rat colon
  Papp: 23.9 nm/s

## O=C(O)CN(CCN(CC(=O)O)CC(=O)O)CCN(CC(=O)O)CC(=O)O [free acid DTPA]
[1]; Group 3 Oral, water
  % Bioavailability Mean ± SD: 6.80 ± 1.66%
[1]; Group 3 Oral, water, 16.38 mg-equiv DTPA/Kg, 6 hr
  AUC0→last Mean ± SD: 1.21 ± 0.29 Hr * ( ng/ml)
[1]; Group 3 Oral, water, 16.38 mg-equiv DTPA/Kg, last time point 6 hr, individual rats
  AUC0→last: 1.4708 Hr * ( ng/ml) and 0.8897 Hr * ( ng/ml) and 1.2594 Hr * ( ng/ml)
[1]; Group 3 Oral, water, individual rats
  % Bioavailability: 8.29% and 5.02% and 7.10%
[1]; Group 3 Oral, water, listed as DTPA (free acid)
  % Bioavailability Mean ± SD: about 7%
